Measurements as given in patent publication US10221197B2, “Phosphatidylinositol 3-kinase inhibitors” (Gilead Sciences, Inc., priority 2014, dated 2019).
pIC50: −log10 of the molar value.

Experiments:
Assay type in all cases: biochemical
PI3Kγ = PI3Kγ (Homo sapiens (Human), UniProt P48736); experiment: TR-FRET enzymatic assay of PI3K isoforms (PI3Kγ); conditions: TR-FRET, 2×Km ATP, 2 μM PIP2, PI3Kγ at 2 nM, incubated for 30 minutes at 25° C.; read-out: γ IC50
Procedure: (§1) The compounds of formula (I) were characterized for their enzymatic activity against the PI3K isoforms. Certain compounds of the present application, including certain compounds of formula (II) and (III) were also characterized for their enzymatic activity against PI3K isoforms. The activities were measured using a time-resolved fluorescence resonance energy transfer (TR-FRET) assay.

PI3Kδ = PI3Kδ (Homo sapiens (Human), UniProt O00329); experiment: TR-FRET enzymatic assay of PI3K isoforms (PI3Kδ); conditions: 2×Km ATP, 2 μM PIP2, incubated for 30 minutes at 25° C., read-out: δ IC50
Chain of PI3Kδ (O00329 whole entry, canonical isoform): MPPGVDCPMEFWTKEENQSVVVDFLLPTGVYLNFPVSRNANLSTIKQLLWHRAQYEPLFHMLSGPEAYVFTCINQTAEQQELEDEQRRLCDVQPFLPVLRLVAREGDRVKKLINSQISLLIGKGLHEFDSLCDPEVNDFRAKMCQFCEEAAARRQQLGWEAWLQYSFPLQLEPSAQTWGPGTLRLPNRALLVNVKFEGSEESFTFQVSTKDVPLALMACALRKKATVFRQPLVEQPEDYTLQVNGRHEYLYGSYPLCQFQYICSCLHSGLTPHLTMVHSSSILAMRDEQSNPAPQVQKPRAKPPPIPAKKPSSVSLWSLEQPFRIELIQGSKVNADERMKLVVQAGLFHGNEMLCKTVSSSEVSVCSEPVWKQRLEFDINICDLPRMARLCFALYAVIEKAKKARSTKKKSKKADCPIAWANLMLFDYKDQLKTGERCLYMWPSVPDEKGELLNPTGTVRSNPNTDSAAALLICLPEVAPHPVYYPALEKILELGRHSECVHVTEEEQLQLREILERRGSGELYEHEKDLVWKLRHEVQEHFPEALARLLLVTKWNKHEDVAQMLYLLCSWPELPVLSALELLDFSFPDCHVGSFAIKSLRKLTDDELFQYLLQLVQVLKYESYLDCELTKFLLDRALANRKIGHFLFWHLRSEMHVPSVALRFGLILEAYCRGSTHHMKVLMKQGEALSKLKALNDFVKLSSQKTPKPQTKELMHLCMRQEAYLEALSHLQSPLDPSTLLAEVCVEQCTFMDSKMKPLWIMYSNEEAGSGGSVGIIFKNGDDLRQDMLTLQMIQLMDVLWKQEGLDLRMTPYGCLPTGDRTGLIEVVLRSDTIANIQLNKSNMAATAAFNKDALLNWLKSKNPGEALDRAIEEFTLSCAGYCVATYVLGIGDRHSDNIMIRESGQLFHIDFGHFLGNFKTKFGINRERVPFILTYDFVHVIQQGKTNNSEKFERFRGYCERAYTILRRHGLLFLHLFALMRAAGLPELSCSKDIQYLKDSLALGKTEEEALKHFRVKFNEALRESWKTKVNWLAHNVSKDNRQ
Chain of PI3Kδ (P27986 whole entry partner, canonical isoform): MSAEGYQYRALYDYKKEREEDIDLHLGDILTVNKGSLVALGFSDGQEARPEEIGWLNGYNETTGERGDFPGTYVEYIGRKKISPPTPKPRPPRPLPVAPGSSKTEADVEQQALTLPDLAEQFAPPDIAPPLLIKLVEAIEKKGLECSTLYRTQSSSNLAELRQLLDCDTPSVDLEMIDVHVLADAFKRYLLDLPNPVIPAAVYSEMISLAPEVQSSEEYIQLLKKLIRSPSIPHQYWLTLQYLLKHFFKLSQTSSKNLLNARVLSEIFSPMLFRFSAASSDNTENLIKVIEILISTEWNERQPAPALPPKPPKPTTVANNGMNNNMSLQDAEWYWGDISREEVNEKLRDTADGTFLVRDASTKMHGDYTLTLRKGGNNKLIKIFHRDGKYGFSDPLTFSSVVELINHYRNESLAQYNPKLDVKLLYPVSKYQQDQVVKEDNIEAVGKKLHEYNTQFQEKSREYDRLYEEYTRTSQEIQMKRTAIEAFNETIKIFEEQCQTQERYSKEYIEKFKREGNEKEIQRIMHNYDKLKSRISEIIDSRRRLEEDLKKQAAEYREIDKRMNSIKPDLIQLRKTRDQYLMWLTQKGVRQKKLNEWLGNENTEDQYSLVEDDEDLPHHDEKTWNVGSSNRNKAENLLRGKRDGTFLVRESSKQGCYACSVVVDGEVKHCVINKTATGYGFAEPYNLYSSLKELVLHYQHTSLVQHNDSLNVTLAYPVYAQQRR
Procedure: as §1

PI3Kβ = PI3Kβ (Homo sapiens (Human), UniProt P42338); experiment: TR-FRET enzymatic assay of PI3K isoforms (PI3Kβ); conditions: TR-FRET, 2×Km ATP, 2 μM PIP2, incubated for 30 minutes at 25° C.; read-out: β IC50
Chain of PI3Kβ (P42338 whole entry, canonical isoform): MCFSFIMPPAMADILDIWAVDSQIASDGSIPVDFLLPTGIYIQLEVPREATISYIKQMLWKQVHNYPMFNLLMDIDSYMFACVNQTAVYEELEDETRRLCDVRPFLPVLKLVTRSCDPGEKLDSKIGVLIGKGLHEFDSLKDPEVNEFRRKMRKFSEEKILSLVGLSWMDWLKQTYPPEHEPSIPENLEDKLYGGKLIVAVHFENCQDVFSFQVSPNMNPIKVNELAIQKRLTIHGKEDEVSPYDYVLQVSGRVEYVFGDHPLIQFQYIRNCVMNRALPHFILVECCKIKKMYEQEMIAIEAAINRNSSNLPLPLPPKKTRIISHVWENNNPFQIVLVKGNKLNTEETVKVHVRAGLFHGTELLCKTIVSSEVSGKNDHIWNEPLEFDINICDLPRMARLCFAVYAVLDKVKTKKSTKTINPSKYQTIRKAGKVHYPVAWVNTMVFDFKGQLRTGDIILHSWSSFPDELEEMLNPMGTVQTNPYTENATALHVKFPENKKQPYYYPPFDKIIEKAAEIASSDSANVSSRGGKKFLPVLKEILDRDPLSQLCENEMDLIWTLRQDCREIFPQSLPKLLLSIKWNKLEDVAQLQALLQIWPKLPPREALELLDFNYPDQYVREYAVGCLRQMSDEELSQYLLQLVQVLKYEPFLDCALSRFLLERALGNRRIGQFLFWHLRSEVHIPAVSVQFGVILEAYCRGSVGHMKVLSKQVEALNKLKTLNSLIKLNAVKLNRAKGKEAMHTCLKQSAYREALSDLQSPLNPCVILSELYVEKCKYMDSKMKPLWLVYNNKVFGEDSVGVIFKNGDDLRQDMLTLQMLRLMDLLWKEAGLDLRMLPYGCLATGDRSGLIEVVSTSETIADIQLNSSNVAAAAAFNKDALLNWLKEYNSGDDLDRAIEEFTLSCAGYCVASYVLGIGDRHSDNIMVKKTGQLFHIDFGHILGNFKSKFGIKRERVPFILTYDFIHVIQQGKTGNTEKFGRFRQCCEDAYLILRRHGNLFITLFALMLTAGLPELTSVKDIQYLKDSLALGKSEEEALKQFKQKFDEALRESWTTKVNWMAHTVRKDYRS
Chain of PI3Kβ (P27986 whole entry partner, canonical isoform): as the sequence (P27986 whole entry partner, canonical isoform) above
Procedure: as §1

Chain of PI3Kγ (P48736 whole entry, canonical isoform): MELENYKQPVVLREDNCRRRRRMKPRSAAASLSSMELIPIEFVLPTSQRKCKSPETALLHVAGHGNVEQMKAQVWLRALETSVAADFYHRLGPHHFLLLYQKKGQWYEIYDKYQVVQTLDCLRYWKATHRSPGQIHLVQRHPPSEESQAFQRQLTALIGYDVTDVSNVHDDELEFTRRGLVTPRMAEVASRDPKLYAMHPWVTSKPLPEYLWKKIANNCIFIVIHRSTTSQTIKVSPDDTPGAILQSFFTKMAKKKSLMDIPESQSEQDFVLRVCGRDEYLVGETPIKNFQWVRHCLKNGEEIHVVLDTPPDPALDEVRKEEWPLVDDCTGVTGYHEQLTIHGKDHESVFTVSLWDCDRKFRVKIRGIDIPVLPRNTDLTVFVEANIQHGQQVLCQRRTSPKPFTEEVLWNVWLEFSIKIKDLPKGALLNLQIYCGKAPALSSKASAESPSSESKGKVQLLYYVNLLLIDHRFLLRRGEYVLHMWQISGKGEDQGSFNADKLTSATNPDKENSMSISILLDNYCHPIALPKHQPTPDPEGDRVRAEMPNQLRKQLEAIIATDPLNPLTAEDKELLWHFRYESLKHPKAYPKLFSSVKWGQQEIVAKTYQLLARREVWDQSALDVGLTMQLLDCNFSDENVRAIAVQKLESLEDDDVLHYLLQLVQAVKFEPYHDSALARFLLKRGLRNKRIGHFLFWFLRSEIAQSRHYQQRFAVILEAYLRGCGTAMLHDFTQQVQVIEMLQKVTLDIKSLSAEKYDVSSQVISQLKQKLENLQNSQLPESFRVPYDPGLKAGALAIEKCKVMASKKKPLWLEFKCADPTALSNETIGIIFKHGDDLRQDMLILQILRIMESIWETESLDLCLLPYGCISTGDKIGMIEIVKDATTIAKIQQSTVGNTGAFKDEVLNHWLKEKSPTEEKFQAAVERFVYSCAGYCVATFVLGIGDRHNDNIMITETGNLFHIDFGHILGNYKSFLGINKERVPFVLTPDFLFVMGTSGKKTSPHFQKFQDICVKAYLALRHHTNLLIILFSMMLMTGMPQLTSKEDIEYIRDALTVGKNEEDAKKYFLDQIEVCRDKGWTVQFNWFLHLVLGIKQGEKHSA
Chain of PI3Kγ (Q8WYR1 whole entry partner, canonical isoform): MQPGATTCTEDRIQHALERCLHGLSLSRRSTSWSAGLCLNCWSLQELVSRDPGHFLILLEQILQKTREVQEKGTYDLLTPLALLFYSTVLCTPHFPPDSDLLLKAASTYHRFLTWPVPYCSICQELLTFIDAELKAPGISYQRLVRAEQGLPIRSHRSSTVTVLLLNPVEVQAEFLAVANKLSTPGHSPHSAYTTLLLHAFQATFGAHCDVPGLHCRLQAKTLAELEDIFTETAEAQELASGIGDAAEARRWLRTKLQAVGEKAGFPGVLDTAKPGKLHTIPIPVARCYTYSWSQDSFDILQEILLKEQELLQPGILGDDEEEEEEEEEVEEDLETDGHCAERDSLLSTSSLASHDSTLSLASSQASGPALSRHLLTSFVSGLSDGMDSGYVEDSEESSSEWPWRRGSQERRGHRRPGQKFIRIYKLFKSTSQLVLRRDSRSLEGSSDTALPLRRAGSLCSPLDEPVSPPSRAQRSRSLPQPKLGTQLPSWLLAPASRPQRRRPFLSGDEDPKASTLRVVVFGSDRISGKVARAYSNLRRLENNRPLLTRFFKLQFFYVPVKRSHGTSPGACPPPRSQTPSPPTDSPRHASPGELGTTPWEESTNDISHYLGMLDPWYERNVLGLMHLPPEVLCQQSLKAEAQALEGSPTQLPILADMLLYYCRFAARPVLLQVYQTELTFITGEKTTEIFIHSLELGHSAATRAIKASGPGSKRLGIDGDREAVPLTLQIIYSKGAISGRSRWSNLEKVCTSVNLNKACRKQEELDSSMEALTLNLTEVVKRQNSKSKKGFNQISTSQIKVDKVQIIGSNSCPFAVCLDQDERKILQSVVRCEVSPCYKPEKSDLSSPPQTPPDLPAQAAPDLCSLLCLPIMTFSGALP

| pIC50 (PI3Kγ) | pIC50 (PI3Kδ) | pIC50 (PI3Kβ) | Structure (SMILES) |
| --- | --- | --- | --- |
| 5.15 | 8.22 | 7.92 | C[C@H](Nc1ncnc(N)c1C#N)c1nc2cccc(Cl)c2c(=O)n1-c1cccc(NC(=O)NCCC(C)(C)O)c1 [Compound 142, (S)-1-(3-(2-(1-((6-amino-5-cyanopyrimidin-4-yl)amino)ethyl)-5-chloro-4-oxoquinazolin-3(4H)-yl)phenyl)-3-(3-hydroxy-3-methylbutyl)urea] |
| 5.82 | 8.30 | 8.15 | C[C@H](Nc1ncnc(N)c1C#N)c1nc2cccc(Cl)c2c(=O)n1-c1cccc(NC(=O)Nc2ccccc2OCCO)c1 [Compound 143, (S)-1-(3-(2-(1-((6-amino-5-cyanopyrimidin-4-yl)amino)ethyl)-5-chloro-4-oxoquinazolin-3(4H)-yl)phenyl)-3-(2-(2-hydroxyethoxy)phenyl)urea] |
| 5.19 | 8.40 | 7.77 | C[C@H](Nc1ncnc(N)c1C#N)c1nc2cccc(Cl)c2c(=O)n1-c1cccc(NC(=O)Nc2ccccc2S(C)(=O)=O)c1 [Compound 144, (S)-1-(3-(2-(1-((6-amino-5-cyanopyrimidin-4-yl)amino)ethyl)-5-chloro-4-oxoquinazolin-3(4H)-yl)phenyl)-3-(2-(methylsulfonyl)phenyl)urea] |
| 5.66 | 8.22 | 7.24 | C[C@H](Oc1ncnc2scnc12)c1nc2cccc(Cl)c2c(=O)n1-c1cccc(NC(=O)NC2CCCC2)c1 [Compound 146, (S)-1-(3-(5-chloro-4-oxo-2-(1-(thiazolo[5,4-d]pyrimidin-7-yloxy)ethyl)quinazolin-3(4H)-yl)phenyl)-3-cyclopentylurea] |
| 5.64 | 7.92 | 7.80 | C[C@H](Oc1ncnc2scnc12)c1nc2cccc(Cl)c2c(=O)n1-c1cccc(NC(=O)NC2(C(F)(F)F)CC2)c1 [Compound 147, (S)-1-(3-(5-chloro-4-oxo-2-(1-(thiazolo[5,4-d]pyrimidin-7-yloxy)ethyl)quinazolin-3(4H)-yl)phenyl)-3-(1-(trifluoromethyl)cyclopropyl)urea] |
| 5.74 | 8.30 | 8.10 | C[C@H](Oc1ncnc2scnc12)c1nc2cccc(Cl)c2c(=O)n1-c1cccc(NC(=O)NCC(F)F)c1 [Compound 148, (S)-1-(3-(5-chloro-4-oxo-2-(1-(thiazolo[5,4-d]pyrimidin-7-yloxy)ethyl)quinazolin-3(4H)-yl)phenyl)-3-(2,2-difluoroethyl)urea] |
| 6.08 | 8.30 | 7.33 | C[C@H](Oc1ncnc2scnc12)c1nc2cccc(Cl)c2c(=O)n1-c1cccc(NC(=O)Nc2cc(C(F)(F)F)no2)c1 [Compound 150, (S)-1-(3-(5-chloro-4-oxo-2-(1-(thiazolo[5,4-d]pyrimidin-7-yloxy)ethyl)quinazolin-3(4H)-yl)phenyl)-3-(3-(trifluoromethyl)isoxazol-5-yl)urea] |
| 5.89 | 8.40 | 7.70 | CCNC(=O)Nc1cccc(-n2c([C@H](C)Oc3ncnc4scnc34)nc3cccc(Cl)c3c2=O)c1 [Compound 151, (S)-1-(3-(5-chloro-4-oxo-2-(1-(thiazolo[5,4-d]pyrimidin-7-yloxy)ethyl)quinazolin-3(4H)-yl)phenyl)-3-ethylurea] |
| 5.60 | 8.00 | 7.77 | C[C@H](Oc1ncnc2scnc12)c1nc2cccc(Cl)c2c(=O)n1-c1cccc(NC(=O)NCC(F)(F)C(F)(F)F)c1 [Compound 152, (S)-1-(3-(5-chloro-4-oxo-2-(1-(thiazolo[5,4-d]pyrimidin-7-yloxy)ethyl)quinazolin-3(4H)-yl)phenyl)-3-(2,2,3,3,3-pentafluoropropyl)urea] |
| 5.80 | 8.40 | 7.32 | CONC(=O)Nc1cccc(-n2c([C@H](C)Oc3ncnc4scnc34)nc3cccc(Cl)c3c2=O)c1 [Compound 153, (S)-1-(3-(5-chloro-4-oxo-2-(1-(thiazolo[5,4-d]pyrimidin-7-yloxy)ethyl)quinazolin-3(4H)-yl)phenyl)-3-methoxyurea] |
| 5.85 | 8.30 | 8.40 | CC(Oc1ncnc2scnc12)c1nc2cccc(Cl)c2c(=O)n1-c1cccc(NC(=O)NCC(F)(F)F)c1 (stereo not drawn) [Compound 154, 1-(3-(5-chloro-4-oxo-2-(1-(thiazolo[5,4-d]pyrimidin-7-yloxy)ethyl)quinazolin-3(4H)-yl)phenyl)-3-(2,2,2-trifluoroethyl)urea] |
| 6.03 | 8.70 | 7.39 | CC(Oc1ncnc2scnc12)c1nc2cccc(Cl)c2c(=O)n1-c1cccc(NC(=O)Nc2ccccc2Cl)c1 (stereo not drawn) [Compound 156, 1-(3-(5-chloro-4-oxo-2-(1-(thiazolo[5,4-d]pyrimidin-7-yloxy)ethyl)quinazolin-3(4H)-yl)phenyl)-3-(2-chlorophenyl)urea] |
| 5.51 | 8.15 | 7.60 | C[C@H](Oc1ncnc2scnc12)c1nc2cccc(Cl)c2c(=O)n1-c1cccc(NC(=O)NCC2OCCO2)c1 [Compound 157, (S)-1-((1,3-dioxolan-2-yl)methyl)-3-(3-(5-chloro-4-oxo-2-(1-(thiazolo[5,4-d]pyrimidin-7-yloxy)ethyl)quinazolin-3(4H)-yl)phenyl)urea] |
| 6.05 | 8.40 | 8.05 | C[C@H](Oc1ncnc2scnc12)c1nc2cccc(Cl)c2c(=O)n1-c1cccc(NC(=O)NCCO)c1 [Compound 158, (S)-1-(3-(5-chloro-4-oxo-2-(1-(thiazolo[5,4-d]pyrimidin-7-yloxy)ethyl)quinazolin-3(4H)-yl)phenyl)-3-(2-hydroxyethyl)urea] |
| 5.25 | 7.48 | 7.38 | N#Cc1c(N)ncnc1N1CCC[C@H]1c1nc2cccc(Cl)c2c(=O)n1-c1cccc(NC(=O)NCC(F)(F)F)c1 [Compound 159, (S)-1-(3-(2-(1-(6-amino-5-cyanopyrimidin-4-yl)pyrrolidin-2-yl)-5-chloro-4-oxoquinazolin-3(4H)-yl)phenyl)-3-(2,2,2-trifluoroethyl)urea] |
| < 5.00 | 7.18 | 5.62 | NC(=O)c1cc(F)cc(-n2c([C@@H](Nc3ncnc(N)c3Cl)C3CC3)nc3cccc(Cl)c3c2=O)c1 [Compound 160, (S)-3-(2-(((6-amino-5-chloropyrimidin-4-yl)amino)(cyclopropyl)methyl)-5-chloro-4-oxoquinazolin-3(4H)-yl)-5-fluorobenzamide] |
| 7.15 | 9.00 | 8.70 | N#Cc1c(N)nc(N)nc1N[C@H](c1nc2cccc(Cl)c2c(=O)n1-c1cc(F)cc(C(N)=O)c1)C1CC1 [Compound 161, (S)-3-(5-chloro-2-(cyclopropyl((2,6-diamino-5-cyanopyrimidin-4-yl)amino)methyl)-4-oxoquinazolin-3(4H)-yl)-5-fluorobenzamide] |
| 5.59 | 9.00 | 7.68 | NC(=O)c1cc(F)cc(-n2c([C@@H](Nc3nc(N)nc(N)c3Cl)C3CC3)nc3cccc(Cl)c3c2=O)c1 [Compound 162, (S)-3-(5-chloro-2-(cyclopropyl((2,6-diamino-5-chloropyrimidin-4-yl)amino)methyl)-4-oxoquinazolin-3(4H)-yl)-5-fluorobenzamide] |
| 5.09 | 8.70 | 7.96 | NC(=O)c1cncc(-n2c([C@@H](Nc3nc(N)nc(N)c3Cl)C3CC3)nc3cccc(Cl)c3c2=O)c1 [Compound 163, (S)-5-(5-chloro-2-(cyclopropyl((2,6-diamino-5-chloropyrimidin-4-yl)amino)methyl)-4-oxoquinazolin-3(4H)-yl)nicotinamide] |
| 6.38 | 9.00 | 8.70 | N#Cc1c(N)nc(N)nc1N[C@H](c1nc2cccc(Cl)c2c(=O)n1-c1cncc(C(N)=O)c1)C1CC1 [Compound 164, (S)-5-(5-chloro-2-(cyclopropyl((2,6-diamino-5-cyanopyrimidin-4-yl)amino)methyl)-4-oxoquinazolin-3(4H)-yl)nicotinamide] |
